Like-named read-outs stand apart in the source and are kept apart here.
Assays:
in vitro [1] = assay: in vitro; design: species or system HB2, HEK293; conditions: human, ccd841 cells
in vitro [2] = assay: in vitro; design: species or system CCD841, HEK293; conditions: human, hb2 cells, read-out: HB-2 Cells Viability (%)
PCAF = molecular target: T1, PCAF (Homo sapiens, UniProt Q92831); design: Intact protein LC/MS covalent labelling, fragments in pools of five, 200 uM each, 4 °C; conditions: 24 h, 4 °C, pool of five; 200 µM; covalent
T1 construct: gene KAT2B
T1 sequence (Q92831 whole entry, the tested form may be a part): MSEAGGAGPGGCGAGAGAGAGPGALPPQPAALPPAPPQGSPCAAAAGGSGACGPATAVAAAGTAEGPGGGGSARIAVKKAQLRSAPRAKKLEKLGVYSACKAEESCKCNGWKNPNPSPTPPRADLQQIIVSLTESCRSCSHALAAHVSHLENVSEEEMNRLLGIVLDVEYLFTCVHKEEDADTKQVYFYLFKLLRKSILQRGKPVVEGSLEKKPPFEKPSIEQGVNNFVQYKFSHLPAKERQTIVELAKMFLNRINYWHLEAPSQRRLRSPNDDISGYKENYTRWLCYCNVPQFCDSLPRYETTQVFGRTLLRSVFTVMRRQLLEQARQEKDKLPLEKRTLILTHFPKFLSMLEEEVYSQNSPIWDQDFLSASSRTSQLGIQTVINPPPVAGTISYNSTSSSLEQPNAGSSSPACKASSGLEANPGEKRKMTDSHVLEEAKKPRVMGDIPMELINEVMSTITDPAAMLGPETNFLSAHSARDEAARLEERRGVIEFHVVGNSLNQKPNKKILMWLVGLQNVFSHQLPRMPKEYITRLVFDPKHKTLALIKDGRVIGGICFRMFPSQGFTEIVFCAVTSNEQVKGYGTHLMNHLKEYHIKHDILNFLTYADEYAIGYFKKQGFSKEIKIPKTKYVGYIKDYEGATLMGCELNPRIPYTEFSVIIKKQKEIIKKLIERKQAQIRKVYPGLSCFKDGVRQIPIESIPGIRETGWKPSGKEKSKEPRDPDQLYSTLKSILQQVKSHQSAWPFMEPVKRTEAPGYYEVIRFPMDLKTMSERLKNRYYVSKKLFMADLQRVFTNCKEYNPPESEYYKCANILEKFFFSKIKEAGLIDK
Method: (§1) Incubations were performed at 200 μM for each compound and 2 μM of protein (10 μM for BSA) for 24 h at 4 °C with moderate shaking. Incubation buffers varied among proteins (PBS pH 7.4 for QSOX1 and BSA; 10 mM HEPES pH 7.5, 0.3 M NaCl, 0.5 mM TCEP for PCAF, UPS8, and NUDT7; […]; 10 mM Na2HPO4 pH 7.5 100 mM NaCl 5 mM β-mercaptoethanol for NV3CP; 20 mM Na phosphate pH 7.5 for NNMT; […]. The reaction was stopped by quenching with formic acid, 0.4% final concentration. Each protein was incubated with the electrophilic library in pools of five compounds per well. The pool’s composition maximized the difference in mass between fragments in the same well. Incubations were performed with each fragment at 200 μM, for 24 h at 4 °C, to allow the screening of proteins that are not stable for long time periods at higher temperatures. Following incubation, we used intact protein [compound left out] chromatography/mass spectrometry (LC/MS) to identify the fragments and quantify their labeling (Figure 3A). […] There was good agreement between the percent of labeling of NUDT7 by 100 random individual compounds and that obtained in pools of five (R^2=0.78; Figure S6 and Data set 2 in the Supporting Information).

NUDT7 = molecular target: T2, NUDT7 (Homo sapiens, UniProt P0C024); design: Intact protein LC/MS covalent labelling, fragments in pools of five, 200 uM each, 4 °C; conditions: 24 h, 4 °C, pool of five; 200 µM; covalent
T2 construct: residues 14-235, E. coli, pNIC28-Bsa4, N-terminal His6 tag removed by TEV, construct 26672 Da
T2 sequence (P0C024 14-235): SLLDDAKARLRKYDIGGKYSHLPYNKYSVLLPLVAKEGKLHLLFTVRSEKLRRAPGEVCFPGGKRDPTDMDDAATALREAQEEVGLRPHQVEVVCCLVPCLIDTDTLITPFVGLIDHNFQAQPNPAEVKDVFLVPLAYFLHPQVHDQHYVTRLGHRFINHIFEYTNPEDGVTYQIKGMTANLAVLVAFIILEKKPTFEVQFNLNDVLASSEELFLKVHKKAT
Method: as §1

BSA = molecular target: T3, BSA (Bos taurus, UniProt P02769); design: Intact protein LC/MS covalent labelling, fragments in pools of five, 200 uM each, 4 °C; conditions: 24 h, 4 °C, pool of five; 200 µM; covalent
T3 construct: gene ALB
T3 sequence (P02769 whole entry, the tested form may be a part): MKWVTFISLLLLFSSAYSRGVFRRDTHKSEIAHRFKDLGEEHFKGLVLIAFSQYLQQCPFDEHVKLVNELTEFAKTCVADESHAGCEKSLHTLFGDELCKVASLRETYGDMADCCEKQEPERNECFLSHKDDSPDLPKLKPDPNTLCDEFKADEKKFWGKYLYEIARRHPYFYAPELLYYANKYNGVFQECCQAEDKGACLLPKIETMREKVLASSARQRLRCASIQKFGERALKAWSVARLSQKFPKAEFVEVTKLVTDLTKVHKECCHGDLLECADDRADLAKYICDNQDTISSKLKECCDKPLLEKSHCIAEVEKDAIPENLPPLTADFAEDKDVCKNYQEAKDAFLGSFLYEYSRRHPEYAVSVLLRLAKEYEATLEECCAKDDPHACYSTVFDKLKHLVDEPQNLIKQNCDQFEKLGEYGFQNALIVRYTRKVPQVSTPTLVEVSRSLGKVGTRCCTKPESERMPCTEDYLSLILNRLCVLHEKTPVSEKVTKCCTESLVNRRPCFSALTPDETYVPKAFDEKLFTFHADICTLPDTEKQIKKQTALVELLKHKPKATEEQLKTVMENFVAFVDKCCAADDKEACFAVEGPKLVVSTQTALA
Method: as §1

OTUB2 (OTUB2A) = molecular target: T4, OTUB2 (OTUB2A) (Homo sapiens, UniProt Q96DC9); design: Intact protein LC/MS covalent labelling, fragments in pools of five, 200 uM each, 4 °C; conditions: 24 h, 4 °C, pool of five; 200 µM; covalent
T4 construct: full length residues 1-234, E. coli BL21(DE3)-R3, His tag removed by TEV, construct 27312 Da
T4 sequence (Q96DC9 1-234): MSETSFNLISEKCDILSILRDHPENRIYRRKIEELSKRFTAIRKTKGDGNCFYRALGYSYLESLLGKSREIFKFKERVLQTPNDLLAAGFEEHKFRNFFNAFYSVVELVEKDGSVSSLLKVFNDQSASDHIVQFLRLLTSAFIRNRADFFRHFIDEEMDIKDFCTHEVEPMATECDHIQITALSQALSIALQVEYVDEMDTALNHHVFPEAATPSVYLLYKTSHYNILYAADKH
Method: as §1

in vitro [3] = assay: in vitro; design: species or system HB2, CCD841; conditions: human, hek293 cells

Compound	viability at 48 h, 10 µM (in vitro [1]) [%]	viability at 48 h, 10 µM (in vitro [2]) [%]	PCAF (PCAF)	NUDT7 (NUDT7)	BSA (BSA)	OTUB2 (OTUB2 (OTUB2A))	viability at 48 h, 10 µM (in vitro [3]) [%]
CC(=O)Nc1ccc(NC(=O)CCl)c(C(F)(F)F)c1 [PCM-0102895]	91.7	97.1	0	0	0	0	82
Cc1nnc(NC(=O)CCl)o1 [PCM-0102147]	107	102	0	0	0	0	92.2
C=CC(=O)NC1CCN(c2ccc(C(F)(F)F)cn2)CC1 [PCM-0102602]	94.7	103	0	0	0	0	62.4
Cc1cccc(C(C)C)c1NC(=O)CCl [PCM-0102358]	89.3	102	0	0	0	0	76.5
O=C(CCl)Nc1ccc(F)c(Cl)c1 [PCM-0102217]	18.8	2.5	0	0	0.13	0.14	1.1
Cc1ccc(S(=O)(=O)N2CCN(C(=O)CCl)CC2)cc1C [PCM-0102379]	22.6	1.8	0	0.1	0	0	2.7
Cn1nc(-c2ccc(Cl)cc2)cc1NC(=O)CCl [PCM-0102296]	4.5	1.6	0	0.54	0	0.38	0.5
Cl.O=C(CCl)N1CCN(Cc2ccccc2)CC1 [PCM-0103063]	81.1	72.1	0	0.07	0	0.35	60.1
O=C(CCl)NCC1CCCO1 (centres unmarked) [PCM-0102356]	104	91.4	0	0	0	0.05	102
C=CC(=O)Nc1ccc(N2CCOCC2)cc1 [PCM-0102551]	113	99.9	0	0	0	0	82.5
O=C(CCl)N(C1CC1)C1CCS(=O)(=O)C1 (centres unmarked) [PCM-0102832]	85.1	88.7	0	0	0	0.43	67.9
C=CC(=O)Nc1ccccc1OC [PCM-0102493]	105	98.2	0	0	0	0	74.7
C=CC(=O)Nc1cc(F)cc(F)c1 [PCM-0103039]	93.3	86.7	0	0.06	0	0	67.1
Cc1cccc(N(C(=O)CCl)C2C=CS(=O)(=O)C2)c1 (centres unmarked) [PCM-0102579]	16.2	29.8	0	0.4	0	0	6.4
CC(C)c1nnc(NC(=O)CCl)s1 [PCM-0102928]	77.9	85.3	0	0.04	0	0	81.8
Cc1noc(NC(=O)CCl)n1 [PCM-0102351]	94.9	103	0	0	0	0	119
O=C(CCl)N1CCCc2cc([N+](=O)[O-])ccc21 [PCM-0102188]	32.3	19.6	0	0.09	0	0.12	46.6
Cl.O=C(CCl)N1CCN(Cc2cccc3ccccc23)CC1 [PCM-0102287]	21.7	9.4	0	0	0	0.29	19.9
Cc1ccc(CNC(=O)CCl)s1 [PCM-0102973]	90.8	98	0	0.11	0.19	0.75	106
Cc1ccc(NC(=O)NC(=O)CCl)c(C)c1 [PCM-0102171]	53.9	78.8	0	0.2	0	0.1	74.7
Cc1ccc(C(C)NC(=O)CCl)cc1C (centres unmarked) [PCM-0102270]	78.1	80.2	0	0	0	0.51	67.9
C=CC(=O)N1CC(O)CC1c1ccccc1C(F)(F)F (centres unmarked) [PCM-0102677]	108	98.4	0	0	0	0	109
O=C(CCl)Nc1ccc2c(c1)OC(F)(F)O2 [PCM-0102738]	72.2	30	0	0	0	0.41	14.2
Cc1ccc(C)c(S(=O)(=O)N2CCN(C(=O)CCl)CC2)c1 [PCM-0102353]	37.7	2.1	0	0.19	0	0.06	3.2
Cc1ccc(C)c(-n2nc(C)cc2NC(=O)CCl)c1 [PCM-0102249]	64	45.3	0	0	0	0.43	25.4
Cc1ccccc1NC(=O)CCl [PCM-0102887]	69.6	90.2	0	0	0	0	55.1
O=C(CCl)Nc1cc(Cl)ccc1F [PCM-0102762]	49.4	11.4	0	0	0	0.13	2.4
O=C(CCl)Nc1cc(Cl)ccc1Cl [PCM-0102288]	70.8	40.7	0	0.06	0	0	38.4
O=C(CCl)N1CC=C(c2ccccc2)CC1 [PCM-0103038]	86.8	90.9	0	0	0	0.09	89.2

— publication PMC6556873, “Rapid Covalent-Probe Discovery by Electrophile-Fragment Screening” (Journal of the American Chemical Society, 2019)
